# What was measured:
# [1] = oral; cited from earlier work
# [2] = cited from earlier work
# Mice fed a Western diet [3] = experiment: Insulin tolerance test; format: in vivo; conditions: compared to saline and sucrose, FIG. 3
# Description: Additionally, an insulin tolerance test was performed in the presence of saline, sucrose or trehalose.
# [4] = Trehalose tolerance test, serum trehalose in trehalase knockout mice; format: in vivo; conditions: trehalose IP 1 g/kg, trehalase knockout mice versus control mice
# Description: To determine if inhibition of trehalase could enhance the efficacy of trehalose, a trehalase knockout mouse was generated. Control mice and trehalase knockout mice were then administered trehalose IP at 1 g/kg. Of 12 chimeric founders, a trehalose tolerance test was performed on n=3 non-targeted controls and n=5 chimeric mice. […] The serum concentration of trehalose at 30 minutes post-administration was measured.
# [5] = orally and intravenously, doses substantially higher than the intended therapeutic dose; cited from earlier work
# Mice fed a Western diet [6] = experiment: Steatosis / body composition in mice fed a Western diet; format: in vivo
# Description: Mice were fed a Western diet in combination with saline, sucrose or trehalose. The saline, sucrose or trehalose was administered orally and IP. Oral administration was provided in the cage water supply at 2% w/v in water (w/v=weight/volume). Additionally, 2 grams trehlose/kg mouse weight was injected IP. IP injection was 3 times/week. […] It was then determined if this significant reduction in body mass was due to fat mass or lean mass. […] (FIG. 2B). It was then determined the location of the increase in fat mass via tissue weights. […] Finally, the amount of liver triglycerides was measured in each group.
# ApoE deficient mice = experiment: Atherosclerotic lesion size in ApoE deficient mice fed a Western diet; format: in vivo; conditions: trehalose oral and IP, 2 months post-treatment, relative to vehicle
# Description: ApoE deficient mice were fed a Western diet with and without treatment with trehalose. Trehalose was administered oral and IP. At 2 months post-treatment the presence of atherosclerosis was evaluated.
compound,measurement,setting,value
OC[C@H]1O[C@H](O[C@H]2O[C@H](CO)[C@@H](O)[C@H](O)[C@H]2O)[C@H](O)[C@@H](O)[C@@H]1O [trehalose],ingested trehalose absorbed into the blood stream,[1],Less than 0.5%
same,trehalose not absorbed into the blood stream,[1],Over 99.5%
same,oral amount that may cause diarrhea and bloating,[2],40-50 gram per day
same,"oral amount that frequently causes diarrhea, bloating and discomfort",[2]; humans,higher than 50 g a day
same,insulin resistance (insulin tolerance test),Mice fed a Western diet [3],less insulin resistance was observed
same,serum concentration of trehalose at 30 minutes post-administration,[4],significantly higher serum levels of trehalose
same,safety and toxicity,[5],found to be safe
same,lean mass,Mice fed a Western diet [6]; FIG. 2B,not lean mass
same,liver triglycerides,Mice fed a Western diet [6]; FIG. 2D,significant reduction in liver triglycerides
same,body mass,"Mice fed a Western diet [6]; Western diet, oral 2% w/v in water plus 2 g/kg IP 3 times/week, at 13-16 weeks",significantly decreased body mass
same,fat mass,"Mice fed a Western diet [6]; at 16 weeks, relative to saline or sucrose",significant reduction in fat mass
same,subcutaneous (subQ) fat mass,"Mice fed a Western diet [6]; tissue weights, FIG. 2C",reduction of fat mass in the subcutaneous (subQ) fat
same,tissue mass in the liver,"Mice fed a Western diet [6]; tissue weights, FIG. 2C",significant reduction in tissue mass in the liver
same,atherosclerotic lesion size,ApoE deficient mice,significantly reduced atherosclerotic lesion size

# Source: US20190038650A1, “COMPOSITIONS AND METHODS FOR THE TREATMENT OF ATHEROSCLEROSIS AND HEPATOSTEATOSIS AND OTHER DISEASES” (priority 2016, published 2019)
